Where “and” joins values, the source holds several entries; their conditions need not be identical. Equal values may be shown once.
Tests used:
[1] = Pharmacokinetic experiment in mice (iv and oral gavage); assay type: in vivo; settings: mouse, whole blood; CD1 male mice; tail vein 2 mg/kg and oral gavage 10 mg/kg
Text: Glipizide (molecular formula was C21H27N5O4S, molecular weight was 445.5 g/mol, Analytical Reagent) purchased from Sigma-Aldrich (U.S.A.), was used as the internal standard for analysis. Methanol, acetonitrile and formic acid (HPLC grade) were purchased from Sigma-Aldrich (U.S.A.), and pure water was purchased from Hangzhou Wahaha Group Co., Ltd. (Hangzhou, China). Other chemical reagents were all analytical reagents.
CD1 male mice, six per group, 6-7 weeks old, 29-31 g, were purchased from LC Laboratory Animal Co. LTD. Before the experiment, the animals should be kept for at least 3 days to adapt to the environment. Throughout the experiment, the animals were required to fast overnight, and allowed to drink water freely during the period, and the surviving animals resumed feeding 4 hours after administration.
1. The compound was formulated into a solution with a concentration of 0.4 mg/mL with 10% DMSO, 10% Solutol HS 15 and 80% Saline.
2. The above prepared solution was administered to 3 mice by tail vein injection (compound dosage was 2 mg/kg), and was administered to another 3 mice by oral gavage (compound dosage was 10 mg/kg) simultaneously.
3. Approximately 30 μL of blood was collected from each of the above 6 mice at 5 minutes, 15 minutes, 30 minutes, 1 hour, 2 hours, 4 hours, 8 hours and 24 hours after administration into the EDTA-K2 anticoagulation tube (set on wet ice), and 20 μL of blood was immediately diluted with 60 μL of water, and then put in the refrigerator at −70° C. for long-term storage until the sample was analyzed.
4. 20 μL of the above solution was transfered into a 96-well deep well sample plate, and 150 μL of glipizide internal standard acetonitrile solution (the concentration was 100 ng/mL) was added, vortexed for 10 min, and centrifuged at […] for 10 min 1 μL of the supernatant was taken for LCMSMS analysis.
5. Based on the drug concentration-time data, WinNonlin 6.4 software (USA) was used to calculate the pharmacokinetic parameters of the compound according to the non-compartment model.

PD-1/PD-L1 = biological target: T1, PD-1/PD-L1 (Homo sapiens, UniProt Q9NZQ7); test: Homogeneous Time-Resolved Fluorescence (HTRF) PD-1/PD-L1 binding assay; settings: CisBio kit
T1 construct: unspecified kit tag (tag1 or tag2, recognised by the detection antibodies); purchased CisBio 64CUS000C-1
Description: Homogenouse Time-Resolved Fluorescence (HTRF) binding assay was used to determine the binding activity of the compound of the present disclosure to PD-1/PD-L1.
The purchased kit (CisBio, #64CUS000C-1) contained the reagents required for experiments such as PD-1, PD-L1, anti-tagl-Eu, Anti-tag2-XL665, Dilute Buffer and Detection Buffer.
1. The compound was formulated to 10 concentrations with a three-fold concentration gradient with 100% DMSO.
2. The solution of the compound in DMSO was added to Dilute Buffer, and mixed evenly and then transferred to a 96-well plate.
3. PD-L1 was diluted with Dilute Buffer and added to the 96-well plate above.
4. PD-1 was diluted with Dilute Buffer, then added to the 96-well plate above and incubated at room temperature for 30 minutes.
5. One portion of anti-tag1-Eu and one portion of anti-tag2-XL665 were added to Detection Buffer, mixed evenly and transferred to the 96-well plate above.
6. The mixed solution in the 96-well plate were incubated at room temperature for 1 to 24 hours.
7. HTRF values were read by Envision.

[2] = test system: colon cancer MC-38-hPD-L1; test: In vivo pharmacodynamics in hPD-1 knock-in mouse colon cancer MC-38-hPD-L1 model; design: species or system C57BL/6-hPD-1 mice; settings: D19; for Tumor Volume: mean ± SEM
Description: In vivo pharmacodynamics study of PD-L1 antibody Durvalumab and compound 29 used singly or in combination in hPD-1 knock-in mouse colon cancer MC-38-hPD-L1 model
Antibody: PD-L1 antibody Imfinzi (Durvalumab), 120 mg/2.4 mL (50 mg/mL), Lot: 041E17C. Manufacturer: AstraZeneca, purchased from Hong Kong Mingchuang Pharmacy Co., Ltd., stored at 2-8° C.
Experimental animals: Human PD-1 transgenic mice, strain: C57BL/6-hPD-1 mice, 6-8 weeks, weighing 18-21 grams, female, 120 mice, purchased from GemPharmatech Co., Ltd.
Human PD-L1 gene was knocked into MC-38 cells (MC-38-hPD-L1 cells), MC-38 cells was adherent cultured in vitro in DMEM medium with 10% heat-inactivated fetal bovine serum and hygromycinB (final concentration […]) at 37° C. under 5% CO2.
Passage cultivation was conducted three times a week. The cells were collected and counted at the exponential growth phase. 100 μL 1×10^6 MC-38-hPD-L1 cells suspension was inoculated into the right dorsal subcutaneous of C57BL/6-hPD-1 mice. 6 days after inoculation, 60 tumor-bearing mice with transplanted tumor volume ranging from 31.49 mm^3-110.26 mm^3 were selected, the mice were randomly divided into 6 groups, with 10 in each group, according to the experimental plan, and administration was started on the same day.
Preparation of vehicle: 800 mL sterile water was measured and added to volumertic flask. Magnetic stirring was carried out to produce vortex on the liquid surface. An aqueous solution of 10% (w/v) Cremophor RH40+20% (w/v) SBE-β-CD was obtained by slow addition of 100 g Cremophor RH40, followed by 200 g SBE-β-CD, and water to fix the solution volume to 1000 mL with fully stirring.
Preparation of Compound 29 suspension: 150.92 mg compound 29 was weighed and 12.5 […] 10% (w/v) Cremophor RH40+20% (w/v) SBE-β-CD (hereinafter referred to as vehicle) aqueous solution was added. A suspension was with a concentration of 12.0 mg/mL was obtained by fully mixing with vortexing for 2 minutes and ultrasonic treatment for 30 minutes. 5.0 mL of the suspension of compound 29 with a concentration of 12.0 mg/mL was pipetted, and 5.0 mL of vehicle was added to the suspension. The suspension with a concentration of 6.0 mg/mL was obtained by fully mixing with vortexing for 1 minute and ultrasonic treatment for 5 minutes. 2.0 mL of the suspension of compound 29 with a concentration of 12.0 mg/mL was pipetted, and 6.0 mL of vehicle was added to the suspension. The suspension with a concentration of 3.0 mg/mL was obtained by fully mixing with vortexing for 1 minute and ultrasonic treatment for 5 minutes. The suspension of compound 29 was prepared once a day.
Preparation of PD-L1 antibody: […] of Durvalumab stock solution (concentration: 50 mg/mL) was pipetted and divided into 6 portions in 5 mL sterile centrifuge tube, with 6.0 mg in each portion, then the portions were stored in a 4° C. refrigerator for late use. Before administration, 0.12 mL of stock solution (concentration: 50 mg/mL) was pipetted, 2.88 mL of 0.9% sodium chloride solution was added to the stock solution. 3 mL of the solution of Durvalumab with a final concentration 2 mg/mL was obtained by shaking slightly and fully vortexing.
1) The mice in the vehicle control group were weighed and recorded in an electronic balance according to the number. The mice in the vehicle control group were administered by oral gavage with vehicle according to the weight twice a day with a capacity of 0.1 mL/10 g. The time for administration was about 20 s for each mouse, and about 5 minutes in total for each group of 10 mice. 2) The mice in the compound 29 (30 mg/kg) group were weighed and recorded in an electronic balance according to the number. The mice in this group were administered by oral gavage with the prepared Compound 29 suspension according to the weight twice a day with a dosage of 30 mg/kg and a capacity of 0.1 mL/10 g. The time for administration was about 20 s for each mouse, and about 5 minutes in total for each group of 10 mice. […]

T1 sequence (Q9NZQ7 19-238 limits assumed): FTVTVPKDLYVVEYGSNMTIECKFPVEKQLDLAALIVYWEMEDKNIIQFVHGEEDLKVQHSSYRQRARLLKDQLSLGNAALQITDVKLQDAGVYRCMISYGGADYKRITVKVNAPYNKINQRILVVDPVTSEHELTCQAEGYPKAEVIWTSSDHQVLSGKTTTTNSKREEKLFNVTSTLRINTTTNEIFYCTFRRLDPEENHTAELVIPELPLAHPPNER

Molecule	bioavailability [1] [%]	IC50 (PD-1/PD-L1) [nM]	also measured
Cc1c(/C=C/c2cc(CN[C@](C)(CO)C(=O)O)ccc2C(F)(F)F)cccc1-c1ccccc1 [Compound 27, (R,E)-2-(3-(2-(2-methylbiphenyl-3-yl)vinyl)-4-(trifluoromethyl)benzylamino)-3-hydroxy-2-methylpropanoic Acid]	52.3	18	
Cc1c(/C=C/c2cc(CNC(CO)C(=O)O)ccc2C(F)(F)F)cccc1-c1ccccc1F (stereo not shown) [Compound 13, (E)-2-(3-(2-(2′-fluoro-2-methylbiphenyl-3-yl)vinyl)-4-(trifluoromethyl)benzylamino)-3-hydroxypropanoic Acid]	16.1	13	
COc1cc(/C=C/c2cccc(-c3ccccc3)c2C)cc(OC)c1CN[C@](C)(CO)C(=O)O	4.42		
COc1cc(/C=C/c2cccc(-c3ccccc3)c2C)cc(OC)c1CN[C@@](C)(CO)C(=O)O	3.89		
COc1cc(/C=C/c2cccc(-c3ccccc3)c2C)cc(OC)c1CN[C@@H](CO)C(=O)O	3.08		
Cc1c(/C=C/c2cc(CNC(C)(CO)C(=O)O)ccc2C(F)(F)F)cccc1-c1ccc2c(c1)OCCO2 (stereo not shown)	5.98		
Cc1c(/C=C/c2cc(CNC(C)(CO)C(=O)O)ccc2F)cccc1-c1ccc2c(c1)OCCO2 (stereo not shown) [Compound 25, (E)-2-(3-(3-(2,3-dihydrobenzo[b][1,4]dioxin-6-yl)-2-methylstyryl)-4-fluorobenzylamino)-3-hydroxy-2-methylpropanoic Acid]		66	
Durvalumab: PD-L1 antibody Imfinzi (Durvalumab), 50 mg/mL, manufacturer AstraZeneca [reference compound]			Tumor Volume ([2]; Durvalumab 20 mg/kg, IP, BIW): 341.19 ± 56.59/D19 mm^3; TGI (tumor inhibition rate) ([2]; Durvalumab 20 mg/kg, IP, BIW, vs vehicle control): 48.17% and 48.17/D19%
Cc1c(/C=C/c2cc(CN[C@@](C)(CO)C(=O)O)ccc2C(F)(F)F)cccc1-c1ccccc1 [Compound 29, (S,E)-2-(3-(2-(2-methylbiphenyl-3-yl)vinyl)-4-(trifluoromethyl)benzylamino)-3-hydroxy-2-methylpropanoic Acid]	38.2	19	Tumor Volume ([2]; 30 mg/kg, PO, BID): 459.82 ± 58.24/D19 mm^3; TGI (tumor inhibition rate) ([2]; 30 mg/kg, PO, BID, vs vehicle control): 24.95/D19%; Tumor Volume ([2]; 60 mg/kg, PO, BID): 439.04 ± 51.23/D19 mm^3; TGI (tumor inhibition rate) ([2]; 60 mg/kg, PO, BID, vs vehicle control): 29.06/D19%; Tumor Volume ([2]; 120 mg/kg, PO, BID): 325.23 ± 38.59/D19 mm^3; TGI (tumor inhibition rate) ([2]; 120 mg/kg, PO, BID, vs vehicle control (max tumor inhibition rate of Compound 29)): 51.21% and 51.21/D19%
Cc1c(/C=C/c2cc(CN[C@@](C)(CO)C(=O)O)ccc2C(F)(F)F)cccc1-c1cnccn1 [Compound 41, (S,E)-3-hydroxy-2-methyl-2-(3-(2-methyl-3-(pyrazin-2-yl)styryl)-4-(trifluoromethyl)benzylamino)propanoic Acid]		540	
Cc1c(/C=C/c2cc(CNC(C)(CO)C(=O)O)ccc2C(F)(F)F)cccc1-c1ccc2c(c1F)OCCO2 (stereo not shown) [Compound 20, (E)-2-(3-(3-(5-fluoro-2,3-dihydrobenzo[b][1,4]dioxin-6-yl)-2-methylstyryl)-4-(trifluoromethyl)benzylamino)-3-hydroxy-2-methylpropanoic Acid]		18	
Cc1c(/C=C/c2cc(CNC(C)(CO)C(=O)O)cc3c2OCC3)cccc1-c1ccc2c(c1)OCCO2 (stereo not shown) [Compound 24, (E)-2-((7-(3-(2,3-dihydrobenzo[b][1,4]dioxin-6-yl)-2-methylstyryl)-2,3-dihydrobenzofuran-5-yl)methylamino)-3-hydroxy-2-methylpropanoic Acid]		430	
